The test system of data set [1] is Rattus norvegicus. Description: Antiinflammatory activity in Wistar rat assessed as inhibition of carrageenan-induced paw edema at 200 mg/kg, po administered 30 mins prior to 1%, sc carrageenan challenge measured after 3 hrs. Format: functional. In general terms: Carrageenan injected into the paw causes an acute inflammation.
For data set [2], the system named is Rattus norvegicus. Description: Antiinflammatory activity in po dosed Wistar rat assessed as inhibition of carrageenan-induced paw edema administered 120 mins prior to 1%, sc carrageenan challenge measured after 3 hrs. Type of data set: functional.
The test system of data set [3] is Rattus norvegicus. Description: Antiinflammatory activity in po dosed Wistar rat assessed as inhibition of carrageenan-induced paw edema administered 30 mins prior to 1%, sc carrageenan challenge measured after 3 hrs. Format: functional.
Data set [4] relates to Rattus norvegicus. Description: Antiinflammatory activity in po dosed Wistar rat assessed as inhibition of carrageenan-induced paw edema administered 60 mins prior to 1%, sc carrageenan challenge measured after 3 hrs. Type of data set: functional.
Data set [5] relates to Rattus norvegicus. Description: Toxicity in po dosed Wistar rat. Particulars: in vivo. Type of data set: organism-based.

Bounds are passed on as bounds.

One may read the inhibition in vivo as the percentage by which the read-out fell short of the control. On to `O=C(O)c1cc(-n2c(-c3ccc(Cl)cc3)cc3c2CCCC3)ccc1O`, for which the inhibition in vivo at 200 mg/kg in data set [1] was found to be 40%.
The ED50 is the dose at which the effect has come halfway, by size or by number of responders. For `CC(=O)Oc1ccc(-n2c(-c3ccccc3)cc3c2CCc2ccccc2-3)cc1C(=O)O`, the inhibition in vivo at 200 mg/kg in data set [1] was 50%. The ED50 in data set [2] worked out at 75 mg/kg.
With `O=C(O)c1cc(-n2c(-c3ccc(O)cc3)cc3c2CCCC3)ccc1O`, in data set [1], the inhibition in vivo at 200 mg/kg was determined as 20%.
Regarding `O=C(O)c1cc(-n2c(-c3ccccc3)cc3c2CCCC3)cc(Br)c1O`, the inhibition in vivo at 200 mg/kg in data set [1] worked out at 0%.
Regarding `O=C(O)c1cc(-n2c(-c3ccc(Br)cc3)cc3c2CCCC3)ccc1O`, the inhibition in vivo at 200 mg/kg in data set [1] worked out at 40%.
On to `O=C(O)c1cc(-n2c(-c3ccc(-c4ccccc4)cc3)cc3c2CCCC3)ccc1O`, for which the inhibition in vivo at 200 mg/kg in data set [1] came out at 50%. In data set [3], the ED50 came out at 162 mg/kg.
The corresponding values for `O=C(O)c1cc(-n2c(-c3ccc(F)cc3)cc3c2CCCC3)ccc1O` are at least 60% and 88 mg/kg.
Turning to `O=C(O)c1cc(-n2c(-c3ccccc3)cc3c2-c2ccccc2CC3)ccc1O`, the inhibition in vivo at 200 mg/kg in data set [1] was 0%.
As for `COC(=O)c1cc(-n2c(-c3ccccc3)cc3c2CCCC3)ccc1SC(=O)N(C)C`, the inhibition in vivo at 200 mg/kg in data set [1] was determined as 0%.
The same measure, in the same setting: as for `CC1CCc2c(cc(-c3ccccc3)n2-c2ccc(O)c(C(=O)O)c2)C1` (stereo not given), the figure is 40%.
With `CC(=O)Oc1ccccc1C(=O)O` [ASPIRIN], the inhibition in vivo at 200 mg/kg in data set [1] is at least 60%. The ED50 in data set [3] stood at 140 mg/kg.
Take `O=C(O)c1cc(-n2c(-c3ccccc3)cc3c2CCCC3)cc(Cl)c1O`: the inhibition in vivo at 200 mg/kg in data set [1] is 0%.
Regarding `CCNC(=O)c1cc(-n2c(-c3ccccc3)cc3c2CCc2ccccc2-3)ccc1O`, the inhibition in vivo at 200 mg/kg in data set [1] turned out to be 0%.
The same measure, in the same setting: as for `O=C(O)c1cc(-n2c(-c3ccccc3)cc3c2CCCC3)ccc1Cl`, the figure is 40%; as for `O=C(O)c1cc(-n2c(-c3ccc([N+](=O)[O-])cc3)cc3c2CCCC3)ccc1O`, 30%.
For the compound `O=C(O)c1cc(-n2c(-c3ccccc3)cc3c4ccccc4ccc32)ccc1O`, in data set [1], the inhibition in vivo at 200 mg/kg was at least 60%. Further, the values for the ED50 in data set [4] and in data set [3] were 69 mg/kg and 105 mg/kg, respectively.
`COc1ccc(-n2c(-c3ccccc3)cc3c2CCCC3)cc1C(=O)O`: the inhibition in vivo at 200 mg/kg in data set [1] was found to be 40%.
For the compound `O=C(O)c1cc(-n2c(-c3ccccc3)cc3c2CCC3)ccc1O`, in data set [1], the inhibition in vivo at 200 mg/kg came to 40%. The Activity entry in data set [5] is “Toxic”.
In the case of `COc1ccc2c(c1)CCc1c-2cc(-c2ccccc2)n1-c1ccc(O)c(C(=O)O)c1`, the inhibition in vivo at 200 mg/kg in data set [1] came to 50%. Besides, the ED50 in data set [4] is 164 mg/kg.
On to `O=C(O)c1cc(-n2c3c(c(-c4ccccc4)c2-c2ccccc2)CCCC3)ccc1O`, for which the inhibition in vivo at 200 mg/kg in data set [1] was 30%.
Regarding `COC(=O)c1cc(-n2c(-c3ccccc3)cc3c2CCCC3)ccc1OC(=S)N(C)C`, the inhibition in vivo at 200 mg/kg in data set [1] worked out at 0%.
Turning to `O=C(O)c1ccc(-n2c(-c3ccccc3)cc3c2CCCC3)cc1O`, in data set [1], the inhibition in vivo at 200 mg/kg stood at 0%.
Take `O=C(O)c1cc(-n2c(-c3ccccc3)cc3c2CCc2cc(Cl)ccc2-3)ccc1O`: the inhibition in vivo at 200 mg/kg in data set [1] was determined as 50%.
For the compound `O=C(O)c1cc(-n2c(-c3ccccc3)cc3ccccc32)ccc1O`, in data set [1], the inhibition in vivo at 200 mg/kg was at least 60%.
In the case of `O=C(O)c1cc(-n2c(-c3ccccc3)cc3c2Cc2ccccc2-3)ccc1O`, the inhibition in vivo at 200 mg/kg in data set [1] turned out to be 30%.
Take `CC(=O)Nc1ccc(-n2c(-c3ccccc3)cc3c2CCCC3)cc1C(=O)O`: the inhibition in vivo at 200 mg/kg in data set [1] worked out at 30%.
`CC(C)(C)C1CCc2c(cc(-c3ccccc3)n2-c2ccc(O)c(C(=O)O)c2)C1` (stereo not given): the inhibition in vivo at 200 mg/kg in data set [1] is 0%.
For the compound `O=C(O)c1cc(-n2c(-c3cccs3)cc3c2CCCC3)ccc1O`, in data set [1], the inhibition in vivo at 200 mg/kg was found to be 30%.
With `COC(=O)c1cc(-n2c(-c3ccccc3)cc3c2CCc2ccccc2-3)ccc1O`, in data set [1], the inhibition in vivo at 200 mg/kg was found to be 30%.
As for `COC(=O)c1cc(-n2c(-c3ccccc3)cc3c2CCCC3)ccc1O`, the inhibition in vivo at 200 mg/kg in data set [1] was found to be 0%.
As to `O=C(O)c1cc(-n2c(-c3cccc(C(F)(F)F)c3)cc3c2CCCC3)ccc1O`, the inhibition in vivo at 200 mg/kg in data set [1] stood at 20%.
Take `CC(=O)Oc1ccc(-n2c(-c3ccccc3)cc3c2CCCC3)cc1C(=O)O`: the inhibition in vivo at 200 mg/kg in data set [1] is 50%.
Regarding `O=C(O)c1cc(-n2c(-c3ccc(Cl)c(Cl)c3)cc3c2CCCC3)ccc1O`, the inhibition in vivo at 200 mg/kg in data set [1] was found to be 0%.
Still for that read-out and setting: as for `CC(=O)Nc1cc(-n2c(-c3ccccc3)cc3c2CCCC3)cc(C(=O)O)c1O`, the figure is 0%; as for `Cc1ccc(-c2cc3c(n2-c2ccc(O)c(C(=O)O)c2)CCCC3)cc1`, 30%; as for `O=C(O)c1cc(-n2c(-c3ccccc3)cc3c2CCCC3=O)ccc1O`, 0%.
Turning to `COC1CCc2c(cc(-c3ccccc3)n2-c2ccc(O)c(C(=O)O)c2)C1` (stereo not given), the inhibition in vivo at 200 mg/kg in data set [1] was determined as 40%.
As to `COc1ccc(-c2cc3c(n2-c2ccc(O)c(C(=O)O)c2)CCCC3)cc1`, in data set [1], the inhibition in vivo at 200 mg/kg is 50%. Besides, the ED50 in data set [3] came to 173 mg/kg.
Consider `CC(C)(C)c1ccc2c(c1)cc(-c1ccccc1)n2-c1ccc(O)c(C(=O)O)c1`, for which the inhibition in vivo at 200 mg/kg in data set [1] is 0%.
For `O=C(O)c1cc(-n2c(-c3ccccc3)cc3c2CCCC3)ccc1O`, the inhibition in vivo at 200 mg/kg in data set [1] is at least 60%. For the same compound, the ED50 in data set [3] is 87 mg/kg.
Regarding `O=C(O)c1cccc(-n2c(-c3ccccc3)cc3c2CCCC3)c1`, in data set [1], the inhibition in vivo at 200 mg/kg is 20%.
Take `O=C(O)c1cc(-n2c(-c3ccccc3)cc3c2CCCCC3)ccc1O`: the inhibition in vivo at 200 mg/kg in data set [1] amounted to 50%. In data set [5], the Activity entry was “Toxic”.
As for `O=C(O)c1cc(-n2c(-c3ccccc3)cc3c2CCc2ccccc2-3)ccc1O` [FENDOSAL], the inhibition in vivo at 200 mg/kg in data set [1] is at least 60%. The ED50 came to 66 mg/kg in data set [2] and 125 mg/kg in data set [3].
With `N#Cc1ccc(-c2cc3c(n2-c2ccc(O)c(C(=O)O)c2)CCCC3)cc1`, the inhibition in vivo at 200 mg/kg in data set [1] was 0%.
Turning to `O=C(O)c1cc(-n2c(-c3ccccc3)cc3c2CCCC3)c(C(F)(F)F)cc1O`, the inhibition in vivo at 200 mg/kg in data set [1] was found to be 0%.
`CCOC(=O)c1cc(-n2c(-c3ccccc3)cc3c2CCc2ccccc2-3)ccc1O`: the inhibition in vivo at 200 mg/kg in data set [1] stood at 0%.
The same measure, in the same setting: the same measure for `CC(C)(C)c1cc2c(n1-c1ccc(O)c(C(=O)O)c1)CCc1ccccc1-2`: 40%; for `CC(=O)c1c2c(n(-c3ccc(O)c(C(=O)O)c3)c1-c1ccccc1)CCc1ccccc1-2`: 0%.
For the compound `COc1ccccc1-c1cc2c(n1-c1ccc(O)c(C(=O)O)c1)CCCC2`, the inhibition in vivo at 200 mg/kg in data set [1] was 50%.
As to `Nc1ccc(-n2c(-c3ccccc3)cc3c2CCCC3)cc1C(=O)O`, in data set [1], the inhibition in vivo at 200 mg/kg stood at 40%.
On the same count and under the same terms, the same measure for `COc1cccc(-c2cc3c(n2-c2ccc(O)c(C(=O)O)c2)CCCC3)c1`: 20%; for `O=C(O)c1cc(-n2c(-c3ccccc3)cc3c2CCCC3)ccc1S`: 50%.

The record behind these values is ChEMBL document CHEMBL3272102, “Carboxyarylindoles as nonsteroidal antiinflammatory agents” (J Med Chem, 1976).
